Results as given in patent publication US20210154281A1, “CELL-BASED CANCER VACCINES AND CANCER THERAPIES” (Massachusetts Institute of Technology, priority 2019, published 2021).
Read-outs that look alike come from different tables or passages of the source.

Columns and labels:
[1] = system: B16F10 melanoma tumor cell line; assay: Cell death by AnnexinV/DAPI staining 48 hours after drug treatment; type: cell-based, mouse; conditions: 48 hours; for cell death by DAPI and Annexin V staining: at the concentrations used; for cytotoxicity at 10 µM / viability at 10 µM / cytotoxicity at 50 µM / viability at 50 µM: Mus musculus, B16-F10; for viability at 10 µM / viability at 50 µM: read-out: AnnV−DAPI− (%) Mean
Method: For assessment of cell death, floating and attached cells were harvested after 48 hours of treatment with the indicated chemotherapeutic drugs. Attached cells were detached using 5 mM EDTA in PBS. The recovered cells were centrifuged at 250×g for 5 minutes, washed once in PBS containing 0.9 mM Ca2+ and 0.5 mM Mg2+ and then stained with AnnV-FITC for 15 minutes in Annexin binding buffer at room temperature according to the manufacturer's protocol (Biolegend). Cells were co-stained with DAPI at a final concentration of 1 μg/ml for 2 minutes in Annexin binding buffer, brought to a final volume of 500 ul using PBS containing 0.9 mM Ca2^+ and 0.5 mM Mg2^+ and analyzed by flow cytometry.
To identify how DNA-damaging chemotherapy could be optimally used to enhance anti-tumor immune function, cytotoxicity assays were performed using the B16F10 melanoma tumor cell line expressing ovalbumin (B16-Ova). Cells were treated with clinically used chemotherapeutic agents followed by assaying for cell death by DAPI and Annexin V staining 48 hours later.

[2] = Cell viability (survival) assay with CellTiter-Glo, 48 hours; type: cell-based, mouse; conditions: mouse, B16F10 melanoma tumor cells, 48 hours, normalized to DMSO-treated control cells
Method: For assays of survival, 15,000 cells were plated per well in a 96-well plate in 100 μl media with 5 replicates per condition. Wells along the four edges of the plate were not used. Following cell attachment, the indicated drugs were added in an equal volume of media, and incubated for an additional 48 hours. The media was then removed and replaced with 100 ul of fresh media at room temperature. Following a 30 minute incubation at room temperature, 50 μl of CellTiter-Glo reagent was added, followed by 2 minutes of gentle mixing. The plate was incubated at room temperature for an additional 10 minutes. 100 μl of supernatant was transferred to a 96-well white opaque plate and luminescence was read on a Tecan microplate reader. Values were normalized to those of DMSO-treated control cells.

MC-38-Ova cells = assay: In vitro cross presentation assay: drug-treated MC-38-Ova cells, BMDC and OT-1 CD8+ T-cells; type: cell-based, mouse
Method: B16-Ova or MC-38 Ova cells were treated with various doses of chemotherapeutic drugs for 24 h followed by extensive washing in IMDM (10% FBS, P/S). Subsequently 1×10^6 treated cells were co-cultured with 2.5×10^5 BMDC per well of a 24-well plate for each condition tested. After 24 hours of co-culture, supernatants were removed from each well and the BMDC washed 2-3 times in T-cell media (RPMI containing 10% FBS, 20 mM HEPES, 1 mM sodium pyruvate, 55 uM b-mercaptoethanol, 2 mM L-glutamine, nonessential amino acids and antibiotics). CD8+OT-I T-cells isolated from spleens of OT-I mice were then co-cultured with the BMDC at 125,000 T-cells per well to achieve an effector to target ratio of 0.5. Where indicated, BMDC and/or T-cells were also exposed to chemotherapy drugs. After a 12-15 h incubation, IFN-g producing T-cells were identified and quantified by intra-cellular cytokine staining and flow cytometry using a BD LSR II or Fortessa flow cytometer. Cells were first gated for CD3 expression, then re-gated for CD8 and IFNg expression.

B16-Ova cells [3] = assay: HMGB1 in cell culture media by ELISA; type: cell-based, mouse; conditions: for HMGB1 (ng/ml) MEAN: culture media 24-48 hours after treatment
Method: Cell-free cell culture media was then analyzed by ELISA for HMGB1 according to the manufacturer's protocol.

B16-Ova cells [4] = assay: Proportion of live and dead cells (AnnV/DAPI) after 24 h treatment with increasing doses; type: cell-based, mouse
Method: B16-Ova cells or MC-38-Ova cells were treated with various doses of chemotherapy as indicated in FIGS. 1F-1I for 24 hours after which the floating fraction of cells was transferred to a separate tube and washed with PBS (for AnnV/DAPI staining) or IMDM (for co-culture with BMDC). The attached fraction was rinsed 1× with PBS, detached using 5 mM EDTA (in PBS), washed with PBS or IMDM and transferred to a separate tube. Separately, cells treated with chemotherapy for 24 h were re-plated at 1 million cells per well of a 24-well plate in 500 ul of IMDM (10% FBS; P/S). Cell-free supernatants were collected after a further 24 h. […] Lysate of the total chemotherapy-treated cell mixture was generated by three rounds of freeze-thawing by alternate incubations in liquid nitrogen and a 37 C water bath.

RIPK1 = assay: Western blotting with anti phosphoRIPK1(S166) antibody; type: cell-based, mouse; conditions: B16-Ova cells
p38MAPK = assay: Western blotting of cell lysates with anti-phospho-p38 antibody; type: cell-based, mouse; conditions: B16-Ova cells
[5] = system: CT26 mouse colon cancer cells; conditions: previously reported; cited from earlier work
B16-Ova cells [6] = assay: Calreticulin surface exposure by flow cytometry; conditions: for CALR (%): 24 hours after treatment, representative experiment; for level of externalized calreticulin: 24 hours of drug exposure
[7] = MC-38-Ova cells treated with 10 uM for 24 h
[8] = MC-38-Ova cells treated with 50 uM for 24 h

Compound	cell death by DAPI and Annexin V staining [1]	cytotoxicity at 10 µM ([1]; read-out: AnnV+DAPI+ (%) Mean) [%]	cytotoxicity at 10 µM ([1]; read-out: AnnV+DAPI− (%) Mean) [%]	cytotoxicity at 10 µM ([1]; read-out: AnnV−DAPI+ (%) Mean) [%]	viability at 10 µM [1] [%]	cytotoxicity at 50 µM ([1]; read-out: AnnV+DAPI+ (%) Mean) [%]	cytotoxicity at 50 µM ([1]; read-out: AnnV+DAPI− (%) Mean) [%]	cytotoxicity at 50 µM ([1]; read-out: AnnV−DAPI+ (%) Mean) [%]	viability at 50 µM [1] [%]	viability at 48 h, 10 µM [2] [%]	viability at 48 h, 50 µM [2] [%]	% CD3+CD8+IFN-γ+ T-cells MEAN (MC-38-Ova cells; [7]) [%]	% CD3+CD8+IFN-γ+ T-cells MEAN (MC-38-Ova cells; [8]) [%]	HMGB1 (ng/ml) MEAN (B16-Ova cells [3]; 10 uM) [ng/mL]	HMGB1 (ng/ml) MEAN (B16-Ova cells [3]; 50 uM) [ng/mL]	RIPK1 activation (RIPK1)	p38MAPK activation (p38MAPK)	immunogenic cell death / calreticulin exposure [5]	CALR (%) (B16-Ova cells [6]; 10 uM)	CALR (%) (B16-Ova cells [6]; 50 uM)	other results
COc1cc([C@@H]2c3cc4c(cc3[C@@H](O[C@@H]3O[C@@H]5CO[C@@H](C)O[C@H]5[C@H](O)[C@H]3O)[C@H]3COC(=O)[C@H]23)OCO4)cc(OC)c1O [Etop, etoposide]	caused varying extents of apoptotic and non-apoptotic cell death	51	11.6	6.54	30.9	47.9	10.9	4.57	36.6	34.9	36.1	13.13	3.83	29.24	10.65	induce RIPK1 activation	p38MAPK activation	ineffective at inducing ER stress and calreticulin exposure	9.69	9.69	inducing the appearance of IFNγ+OT-1 CD8+ T-cells (MC-38-Ova cells; MC-38-Ova, etoposide 10 μM): the most effective treatment; HMGB1 release into the media (B16-Ova cells [3]; 24-48 hours post-treatment window): lowest levels of HMGB1 release; proportion of dead cells (AnnV or DAPI single or double positive) (B16-Ova cells [4]; 25 uM): ~30%; further increase of the proportion of dead cells (B16-Ova cells [4]; 100 uM): ~5%; proportion of dead cells (AnnV or DAPI single or double positive) (B16-Ova cells [4]; between 25 and 75 uM): ~30%; level of externalized calreticulin (B16-Ova cells [6]): intermediate levels of calreticulin exposure
O=C1c2c(O)ccc(O)c2C(=O)c2c(NCCNCCO)ccc(NCCNCCO)c21 [Mito, mitoxantrone]	caused varying extents of apoptotic and non-apoptotic cell death	52.4	17.1	9.44	21.1	73.8	11.7	8.5	6.08	0.0743	0.000452	3.433	0.148	70.09	14.63	induce RIPK1 activation	p38MAPK activation	promote strong immunogenic cell death	17.10	4.15	dead cell proportion (B16-Ova cells [4]; 25 uM and higher doses): greater than 90%; dead cell proportion (B16-Ova cells [4]; between 5 and 10 uM): ~50%; level of externalized calreticulin (B16-Ova cells [6]): highest level of externalized calreticulin
